PubChem BioAssay AID1963835 (Molecular Pharmacology Branch, DTP, NCI, 2024)

System: 699152-130-R-J1-PDC complex spheroid viability
Test: Anticancer human tumor 699152-130-R-J1-PDC patient-derived pancreatic carcinoma cell line growth inhibition [POLQ]
Conditions: for IC50: curve of first compound; for viability, T/C: stronger effect = lower value
Outline: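 Patient-derived tumour cells were co-cultured with HUVEC and mesenchymal stem cells as multicellular spheroids at 37 °C. They were treated with POLQ inhibitors (novobiocin, ART-558, RP6685) alone or combined with other agents. Top concentrations were at or near clinical Cmax (otherwise 10 microM; SN-38 at 1 microM), decreasing in half-log steps.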
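Note: spheroids exposed to agents for 7 days before viability reading.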
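Throughout, for viability, T/C: percent of DMSO vehicle control viability so 100% = vehicle and 0% = no viable signal.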

For `O=C(c1cc(Cc2n[nH]c(=O)c3ccccc23)ccc1F)N1CCN(C(=O)C2CC2)CC1` + Nc1ccc(C#CCN(C(=O)Cc2ncc(C(F)(F)F)cc2C(F)(F)F)c2ccc(F)cc2)nn1, the IC50 (second compound 0.0316 µM) was greater than 10 µM, the IC50 (second compound 0.1 µM) was greater than 10 µM and the IC50 (second compound 0.316 µM) was greater than 10 µM. It also gave an IC50 (second compound 1 µM) greater than 10 µM, an IC50 (second compound 3.16 µM) greater than 10 µM and an IC50 (second compound 10 µM) greater than 10 µM. The viability, T/C (second compound 0.0316 µM, first compound 0.0316 µM) was 88.9%, the viability, T/C (second compound 0.0316 µM, first compound 0.1 µM) was 99.8% and the viability, T/C (second compound 0.0316 µM, first compound 0.316 µM) was 81.6%. It also gave a viability, T/C (second compound 0.0316 µM, first compound 1 µM) of 109%, a viability, T/C (second compound 0.0316 µM, first compound 3.16 µM) of 85.3% and a viability, T/C (second compound 0.0316 µM, first compound 10 µM) of 93.2%. For the same compound, the viability, T/C (second compound 0.1 µM, first compound 0.0316 µM) was 95%, the viability, T/C (second compound 0.1 µM, first compound 0.1 µM) was 110% and the viability, T/C (second compound 0.1 µM, first compound 0.316 µM) was 97.8%. The viability, T/C (second compound 0.1 µM, first compound 1 µM) was 95.4%, the viability, T/C (second compound 0.1 µM, first compound 3.16 µM) was 99.6% and the viability, T/C (second compound 0.1 µM, first compound 10 µM) was 82.3%. The viability, T/C (second compound 0.316 µM, first compound 0.0316 µM) was 100%, the viability, T/C (second compound 0.316 µM, first compound 0.1 µM) was 114% and the viability, T/C (second compound 0.316 µM, first compound 0.316 µM) was 101%. It also gave a viability, T/C (second compound 0.316 µM, first compound 1 µM) of 92.8%, a viability, T/C (second compound 0.316 µM, first compound 3.16 µM) of 96.3% and a viability, T/C (second compound 0.316 µM, first compound 10 µM) of 85.3%. The viability, T/C (second compound 1 µM, first compound 0.0316 µM) was 105%, the viability, T/C (second compound 1 µM, first compound 0.1 µM) was 99.2% and the viability, T/C (second compound 1 µM, first compound 0.316 µM) was 98.5%. The viability, T/C (second compound 1 µM, first compound 1 µM) was 112%, the viability, T/C (second compound 1 µM, first compound 3.16 µM) was 86.7% and the viability, T/C (second compound 1 µM, first compound 10 µM) was 77.5%. The viability, T/C (second compound 3.16 µM, first compound 0.0316 µM) was 108%, the viability, T/C (second compound 3.16 µM, first compound 0.1 µM) was 113% and the viability, T/C (second compound 3.16 µM, first compound 0.316 µM) was 114%. For the same compound, the viability, T/C (second compound 3.16 µM, first compound 1 µM) was 98.6%, the viability, T/C (second compound 3.16 µM, first compound 3.16 µM) was 88% and the viability, T/C (second compound 3.16 µM, first compound 10 µM) was 81.8%. The viability, T/C (second compound 10 µM, first compound 0.0316 µM) was 103%, the viability, T/C (second compound 10 µM, first compound 0.1 µM) was 107% and the viability, T/C (second compound 10 µM, first compound 0.316 µM) was 108%. The viability, T/C (second compound 10 µM, first compound 1 µM) was 107%, the viability, T/C (second compound 10 µM, first compound 3.16 µM) was 113% and the viability, T/C (second compound 10 µM, first compound 10 µM) was 97.8%.
